Reference: patent US5750540A, “1,4-di-substituted piperidine derivatives” (Banyu Pharmaceutical Co., Ltd., priority 1995, dated 1998)
pKi: −log10 of the molar value.

Key:
muscarinic M1 receptors = biological target: T1, muscarinic M1 receptors (Rattus norvegicus, UniProt P08482); test: Inhibition of binding to muscarinic M1 receptors ([3H]-telenzepine, cerebral cortex membrane)
T1 construct: a mixture of a membrane specimen from the cerebral cortex; from tissue; host or cells: rat cerebral cortex membranes (SD rat)
T1 sequence (P08482 1-460): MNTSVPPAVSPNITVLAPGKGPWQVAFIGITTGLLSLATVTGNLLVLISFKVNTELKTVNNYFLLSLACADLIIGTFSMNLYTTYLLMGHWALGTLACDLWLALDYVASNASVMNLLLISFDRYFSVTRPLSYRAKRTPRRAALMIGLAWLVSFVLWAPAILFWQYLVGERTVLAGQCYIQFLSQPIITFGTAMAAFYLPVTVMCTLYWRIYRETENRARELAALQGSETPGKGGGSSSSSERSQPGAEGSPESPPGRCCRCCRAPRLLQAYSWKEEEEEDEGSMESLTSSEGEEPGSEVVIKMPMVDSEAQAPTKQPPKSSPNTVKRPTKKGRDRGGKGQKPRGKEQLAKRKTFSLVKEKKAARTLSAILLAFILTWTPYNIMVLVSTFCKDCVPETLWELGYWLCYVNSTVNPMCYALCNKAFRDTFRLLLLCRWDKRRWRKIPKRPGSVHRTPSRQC
Description: (§1) In these tests, their inhibitory and antagonistic effects were expressed in terms of the dissociation constant (Ki) of each test compound which was calculated from its concentration (IC50 ) causing a 50% inhibition of the binding of a labeled ligand to muscarinic receptors. As the labeled ligand, [^3 H]-telenzepine was used for the muscarinic M1 receptors and [^3 H]-N-methylscopolamine for the muscarinic M2 and M3 receptors.
(§2) A male SD strain rat (purchased from Nippon Charles River Co., Ltd.), weighing about 250-350 g, was sacrificed, and the cerebral cortex, heart and lacrimal glands were excised. Using a Polytron (setting 5), each organ was homogenized in 5 volumes of an ice-cold buffer solution (pH 7.4) containing 50 mM tris-HCl, 5 mM magnesium chloride, 1 mM trisodium ethylenediaminetetraacetate and 20% sucrose. The resulting homogenate was centrifuged at 3,000×g at 4° C. for 15 minutes, and the supernatant was filtered through gauze and ultracentrifuged at 100,000×g at 4° C. for 45 minutes. The resulting precipitate was suspended in an ice-cold buffer solution (pH 7.4) containing 50 mM tris-HCl and 5 mM magnesium chloride (hereinafter referred briefly to as "tris buffer") and ultracentrifuged at 100,000×g at 4° C. for 45 minutes. The resulting precipitate was suspended in tris buffer so as to give a concentration of 50 mg/ml and stored at -80° C. till use. The membrane specimens so prepared were thawed prior to use and submitted to tests for the inhibition of binding to muscarinic receptors.
2) Tests for the inhibition of binding to the muscarinic M1 receptors
These tests were performed according to a modification of the method of Hargreaves et al. [Br. J. Pharmacol., Vol. 107, pp. 494-501 (1992)]. Specifically, a mixture of a membrane specimen from the cerebral cortex, 1 nM [^3 H]-telenzepine (85 Ci/mmol; manufactured by New England Nuclear) and a test compound in 0.5 ml of tris buffer was incubated at room temperature (about 20°-25° C.) for 120 minutes. After the addition of 0.5 ml of ice-cold tris buffer, the mixture was filtered by suction through a glass filter (Packard Unifilter Plate GF/C). Then, the filter was washed four times with 1 ml portions of ice-cold tris buffer and dried at 50° C. for an hour. After the addition of a scintillator (Packard Microscinti 0), the radioactivity of [^3 H]-telenzepine adsorbed to the filter was measured with a microplate scintillation counter (Packard Topcount). The nonspecific binding of [^3 H]-telenzepine to receptors was determined by the addition of […] pirenzepine. According to the method of Cheng and Prusoff [Biochem. Pharmacol., Vol. 22, pp. 3099-3108 (1973)], the affinity of the test compound (i.e., a compound in accordance with the present invention) for the muscarinic M1 receptors was determined in terms of its dissociation constant (Ki) calculated from the concentration (IC50) of the test compound which was required to cause a 50% inhibition of the binding of [^3 H]-telenzepine used as the labeled ligand.

muscarinic M3 receptor = muscarinic M3 receptor (Rattus norvegicus, UniProt P08483); test: Inhibition of binding to muscarinic M3 receptors ([3H]-N-methylscopolamine, lacrimal gland membrane); design: a membrane specimen from the lacrimal glands was used as the membrane specimen; from tissue; host or cells: rat lacrimal gland membranes (SD rat); conditions: for M1/M3 / M2/M3: ratio of binding Ki; for M1/M3: M1 over M3; for M2/M3: M2 over M3
muscarinic M3 receptor, sequence (P08483 whole entry): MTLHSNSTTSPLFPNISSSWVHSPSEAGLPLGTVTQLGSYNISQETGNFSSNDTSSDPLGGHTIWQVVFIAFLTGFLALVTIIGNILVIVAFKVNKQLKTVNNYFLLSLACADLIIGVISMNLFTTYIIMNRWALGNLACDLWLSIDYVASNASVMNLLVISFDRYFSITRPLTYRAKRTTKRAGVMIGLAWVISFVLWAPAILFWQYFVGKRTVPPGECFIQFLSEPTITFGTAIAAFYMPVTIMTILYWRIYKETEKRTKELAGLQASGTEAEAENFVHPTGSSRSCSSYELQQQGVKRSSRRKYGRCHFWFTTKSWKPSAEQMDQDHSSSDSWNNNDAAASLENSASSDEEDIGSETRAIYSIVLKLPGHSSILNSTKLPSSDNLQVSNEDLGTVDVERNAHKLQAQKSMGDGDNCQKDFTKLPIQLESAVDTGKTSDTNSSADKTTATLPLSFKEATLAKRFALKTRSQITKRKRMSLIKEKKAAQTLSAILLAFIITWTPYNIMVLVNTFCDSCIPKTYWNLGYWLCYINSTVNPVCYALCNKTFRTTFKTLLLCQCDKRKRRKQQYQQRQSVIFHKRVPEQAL
Description: as §1, §2
4) Tests for the inhibition of binding to the muscarinic M2 receptors
(§3) The nonspecific binding of [^3 H]-N-methylscopolamine to receptors was determined by the addition of 1 mM N-methylscopolamine.

muscarinic M2 receptors = biological target: T2, muscarinic M2 receptors (Rattus norvegicus, UniProt P10980); test: Inhibition of binding to muscarinic M2 receptors ([3H]-N-methylscopolamine, heart membrane); conditions: 0.2 nM [3H]-N-methylscopolamine
T2 construct: a membrane specimen from the heart was used as the membrane specimen; from tissue; host or cells: rat heart membranes (SD rat)
T2 sequence (P10980 1-466): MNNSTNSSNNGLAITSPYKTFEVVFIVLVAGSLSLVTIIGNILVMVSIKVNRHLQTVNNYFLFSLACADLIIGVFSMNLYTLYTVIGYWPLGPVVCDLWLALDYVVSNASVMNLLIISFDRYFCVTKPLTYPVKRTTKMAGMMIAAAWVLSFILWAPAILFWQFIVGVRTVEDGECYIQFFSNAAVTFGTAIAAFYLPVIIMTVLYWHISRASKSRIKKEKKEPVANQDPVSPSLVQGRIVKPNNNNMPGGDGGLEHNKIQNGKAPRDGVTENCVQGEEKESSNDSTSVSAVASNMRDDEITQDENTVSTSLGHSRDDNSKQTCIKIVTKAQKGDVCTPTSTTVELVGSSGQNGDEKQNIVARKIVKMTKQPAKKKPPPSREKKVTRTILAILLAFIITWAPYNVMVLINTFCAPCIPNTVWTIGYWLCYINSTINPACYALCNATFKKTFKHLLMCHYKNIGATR
Description: as §1, with “The compounds of formula [I] in accordance with the present invention have a potent and selective inhibitory effect on binding to muscarinic receptors, as well as a potent and selective antagonistic effect on muscarinic receptors both in vitro and in vivo. […] In” for “In”
as §2
3) Tests for the inhibition of binding to the muscarinic M2 receptors
as §3

Compound | pKi (muscarinic M1 receptors) | pKi (muscarinic M3 receptor) | M1/M3 (muscarinic M3 receptor) | M2/M3 (muscarinic M3 receptor) | pKi (muscarinic M2 receptors)
CC[C@H](C)CCCN1CCC(NC(=O)[C@](O)(c2ccccc2)C2CCCC2)CC1.Cl [Example 29, (2R)-N-{1-[(4S)-4-Methylhexyl]piperidin-4-yl}-2-cyclopentyl-2-hydroxy-2-phenylacetamide hydrochloride] | 7.40 | 8.39 | 10 | 270 | 5.96
CC(C)=CCCN1CCC(NC(=O)C(O)(c2ccccc2)C2CCCC2)CC1 (stereo not shown) [Example 16, N-[1-(4-Methyl-3-pentenyl)piperidin-4-yl]-2-cyclopentyl-2-hydroxy-2-phenylacetamide] | 7.89 | 8.51 | 4.2 | 97 | 6.52
CC(C)=CCCN1CCC(NC(=O)[C@](O)(c2ccccc2)C2CCCC2)CC1.O=C(O)/C=C/C(=O)O [Example 28, (2R)-N-[1-(4-Methyl-3-pentenyl)piperidin-4-yl]-2-cyclopentyl-2-hydroxy-2-phenylacetamide fumarate] | 8.22 | 8.70 | 3.0 | 96 | 6.72
CC[C@H](C)CCCN1CCC(NC(=O)[C@](O)(c2ccccc2)C2CCC2)CC1.Cl [Example 22, (2R)-N-{1-[(4S)-4-Methylhexyl]piperidin-4-yl}-2-cyclobutyl-2-hydroxy-2-phenylacetamide hydrochloride] | 6.92 | 8.04 | 13.0 | 152 | 5.85
O=C(NC1CCN(CC2CCCCC2)CC1)C(O)(c1ccccc1)C1CCCC1 (stereo not shown) [Example 32, N-[1-(Cyclohexylmethyl)piperidin-4-yl]-2-cyclopentyl-2-hydroxy-2-phenylacetamide] |  | 7.96 |  |  | 5.64
